Assay results from patent publication US8188135B2, “Compounds as cannabinoid receptor ligands” (priority 2008, dated 2012).
Where “and” joins values, the source holds several entries; their conditions need not be identical. Equal entries are not always repeated. Where two headings read alike, the source gives them in different places.

How the values were obtained:
rat CB2 [1] = target: T1, rat CB2 (Rattus norvegicus, UniProt Q9QZN9); test: rat CB2 cyclase functional assay (HitHunter cAMP); type: cell-based; parameters: expressed in transfected cells; host or cells: HEK; conditions: rat CB2 cyclase (EC50, nM), HEK cells, forskolin 18 μM
T1 sequence (Q9QZN9 1-360): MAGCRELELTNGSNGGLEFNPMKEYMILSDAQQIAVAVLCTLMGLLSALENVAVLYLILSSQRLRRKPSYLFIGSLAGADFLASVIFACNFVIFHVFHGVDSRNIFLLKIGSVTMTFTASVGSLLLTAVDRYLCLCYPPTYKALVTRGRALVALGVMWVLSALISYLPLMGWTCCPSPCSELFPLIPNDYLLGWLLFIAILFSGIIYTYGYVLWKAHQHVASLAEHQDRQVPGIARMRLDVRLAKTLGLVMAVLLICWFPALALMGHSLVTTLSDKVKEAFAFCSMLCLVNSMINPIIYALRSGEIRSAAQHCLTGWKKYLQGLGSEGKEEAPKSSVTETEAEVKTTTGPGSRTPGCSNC
Description: (§1) The cyclase functional assays were performed using the HitHunter™ cAMP assay kit from DiscoveRx (Fremont, Calif.) according to vendor's protocol. Briefly, HEK cells expressing CB2 or CB1 receptors (rat or human) were detached using cell dissociation buffer (Invitrogen, Carlsbad, Calif.), dispersed and placed in suspension at 10,000 cells per well in 96 well plates prior to the assay. Cell suspensions were incubated at 37° C. for 20 min with variable concentrations of test ligands and or 10 μM CP 55,940-positive control in the presence of a fixed concentration of forskolin (18 μM for rat CB2 and 37 μM for rat CB1) in Dulbescco's phosphate-buffered saline (Invitrogen, Carlsbad, Calif.) supplemented with bovine serum albumin (0.01% final concentration). The reactions were terminated by the addition of lysis buffer and the luminescence was detected following the procedure according to the manufacturer's instructions. EC50 values were calculated using sigmoidal dose-response curve fitting from Prism (GraphPad).

Rat CB1 = target: T2, Rat CB1 (Rattus norvegicus, UniProt P20272); test: rat CB1 cyclase functional assay (HitHunter cAMP); type: cell-based; conditions: HEK cells, forskolin 37 μM
T2 construct: expressed in transfected cells; host or cells: HEK
Description: as §1

rat CB2 [2] = target: T1, rat CB2; test: rat CB2 radioligand binding assay ([3H]CP 55,940 competition); parameters: expressed in transfected cells; host or cells: HEK293; conditions: HEK293 membranes, 0.5 nM [3H]CP 55,940
Summary of the method: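 Competition binding against 0.5 nM [3H]CP 55,940 (pH 7.4 buffer with 0.5 mg/mL BSA, 30 °C, 45 min), with displacers spanning 0.01 nM–10 μM at five concentrations. Receptor source: stably transfected HEK293 membranes, 20 μg/well. Nonspecific binding defined by 10 μM unlabeled CP 55,940; readout by filtration and counting.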

human CB2 receptors = target: T3, human CB2 receptors (Homo sapiens, UniProt P34972); test: human CB2 radioligand binding assay ([3H]CP 55,940 competition); conditions: HEK293 membranes, 0.5 nM [3H]CP 55,940
T3 construct: expressed in transfected cells; host or cells: HEK293
Summary of the method: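 Displacement of 0.5 nM [3H]CP 55,940 over 0.01 nM-10 μM test compound, measured on human CB2 membranes from stably transfected HEK293 cells. Incubation 90 min at 30 °C in Tris/EDTA/MgCl2/BSA, pH 7.4, then filter-bound radioactivity counted; 10 μM unlabeled CP 55,940 defined nonspecific binding.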

[3] = pharmacokinetic studies in rats; conditions: male, Sprague-Dawley, rat; for clearance / half-life: iv; for bioavailability: po
Description: Male Sprague-Dawley rats, weighing 250-400 g, were obtained from Charles Rivers Laboratories. Pharmacokinetic studies were conducted in three groups of rats; each group contained three animals. All groups were dosed with a solution formulation. The first group of three rats received an intravenous dose, administered under isoflurane anesthetic. The second group received an intraperitoneal dose and the third group received an oral dose, administered by gavage. Sequential blood samples were obtained from a tail vein of each animal for 8-24 hours after dosing. Plasma was separated by centrifugation and stored frozen until analysis.
Half life […] and plasma clearance values are based on intravenous administration (3 micromole/kg).
Half life (t1/2) and plasma clearance values are based on intravenous administration (3 micromole/kg).

[4] = read-out: Rat CB1 cyclase (EC50)

T3 sequence (P34972 whole entry): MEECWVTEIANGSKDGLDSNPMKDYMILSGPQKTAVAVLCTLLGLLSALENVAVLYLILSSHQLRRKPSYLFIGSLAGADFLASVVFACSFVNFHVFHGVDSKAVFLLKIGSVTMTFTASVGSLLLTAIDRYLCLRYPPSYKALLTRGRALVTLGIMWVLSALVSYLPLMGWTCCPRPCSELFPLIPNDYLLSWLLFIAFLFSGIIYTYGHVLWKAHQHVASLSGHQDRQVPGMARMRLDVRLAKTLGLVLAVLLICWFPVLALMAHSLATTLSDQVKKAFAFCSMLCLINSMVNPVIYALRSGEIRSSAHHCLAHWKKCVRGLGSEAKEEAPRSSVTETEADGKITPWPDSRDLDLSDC
T2 sequence (P20272 whole entry): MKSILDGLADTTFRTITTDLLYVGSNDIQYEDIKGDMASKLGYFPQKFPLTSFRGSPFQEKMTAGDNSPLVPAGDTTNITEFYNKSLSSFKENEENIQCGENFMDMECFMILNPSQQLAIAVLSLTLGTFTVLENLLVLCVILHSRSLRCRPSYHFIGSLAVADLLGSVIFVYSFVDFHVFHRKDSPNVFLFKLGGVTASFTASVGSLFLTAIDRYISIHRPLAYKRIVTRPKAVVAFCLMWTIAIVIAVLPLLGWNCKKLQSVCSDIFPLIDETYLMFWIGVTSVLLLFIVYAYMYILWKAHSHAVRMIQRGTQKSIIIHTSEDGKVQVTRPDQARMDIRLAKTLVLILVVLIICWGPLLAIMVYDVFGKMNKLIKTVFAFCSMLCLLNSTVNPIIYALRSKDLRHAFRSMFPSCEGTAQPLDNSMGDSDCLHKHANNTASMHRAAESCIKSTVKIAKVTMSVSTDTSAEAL

| SMILES | Ki (rat CB2 [2]; rat CB2 (Ki, nM)) | Ki (human CB2 receptors; human CB2 (Ki, nM)) | clearance ([3]; in vivo, 3 micromole/kg) | half-life ([3]; in vivo, 3 micromole/kg) | bioavailability ([3]; in vivo, 10 micromole/kg) | EC50 (Rat CB1; [4]) | also measured |
| --- | --- | --- | --- | --- | --- | --- | --- |
| CC1CCC(COc2ccc(C(F)(F)F)cc2C(=O)N=c2cc(C(C)(C)C)n(C)n2CC2CCCO2)O1 (single isomer, unassigned) [Example 36] | 108 nM | 74 nM |  |  |  |  | EC50 (rat CB2 [1]): 2.7 nM; EC50 (Rat CB1; Rat CB1 cyclase (EC50, nM)): 8410 nM |
| Cn1c(C(C)(C)C)c/c(=N\C(=O)c2cccc(C(F)(F)F)c2F)n1CC1CC1 [A, reference compound] |  |  | 10 mL/min/kg | 0.7 h | 26% |  |  |
| CCCCn1/c(=N/C(=O)c2cc(Cl)ccc2OC)cc(C(C)(C)C)n1C [B, reference compound] |  |  | 40 mL/min/kg | 1.7 h | 11% |  |  |
| CC(C)Cn1/c(=N/C(=O)c2cccc(C(F)(F)F)c2F)cc(C(C)(C)C)n1C [C, reference compound] |  |  | 26.7 mL/min/kg | 0.8 h | 45% |  |  |
| CCCCn1/c(=N/C(=O)c2cc(C(F)(F)F)ccc2Cl)cc(C(C)(C)C)n1C [D, reference compound] |  |  | 56.7 mL/min/kg | 0.3 h | 10% |  |  |
| CCCCn1/c(=N/C(=O)c2cc(C(F)(F)F)ccc2OC)cc(C(C)(C)C)n1C [E, reference compound] |  |  | 33.3 mL/min/kg | 2.9 h | 9% |  |  |
| CN1CCC[C@H]1COc1ccc(C(F)(F)F)cc1C(=O)/N=c1\sc(C(C)(C)C)nn1C[C@H]1CCCO1 [Example 69, N-[(2Z)-5-tert-butyl-3-[(2R)-tetrahydrofuran-2-ylmethyl]-1,3,4-thiadiazol-2(3 H)-ylidene]-2-{[(2S)-1-methylpyrrolidin-2-yl]methoxy}-5-(trifluoromethyl)benzamide] | 19 nM and 5 nM | 10 nM and 14 nM |  |  |  |  | EC50 (rat CB2 [1]): 0.93 nM and 0.16 nM |
| Cn1c(C(C)(C)C)c/c(=N\C(=O)c2cc(C(F)(F)F)ccc2OCC(C)(C)O)n1CC1CC1 [Example 71, N-[(3E)-5-tert-butyl-2-(cyclopropylmethyl)-1-methyl-1,2-dihydro-3H-pyrazol-3-ylidene]-2-(2-hydroxy-2-methylpropoxy)-5-(trifluoromethyl)benzamide] | 8.5 nM | 38 nM |  | 4.7 h |  |  | EC50 (Rat CB1; Rat CB1 cyclase (EC50, nM)): 4280 nM; clearance [3]: 5 mL/min/kg; bioavailability [3]: 46% |
| CCCCn1cc(C(C)(C)C)o/c1=N\C(=O)c1cc(C(F)(F)F)ccc1OC[C@@H]1CCCN1C [Example 76, N-[(2Z)-3-butyl-5-tert-butyl-1,3-oxazol-2(3H)-ylidene]-2-{[(2S)-1-methylpyrrolidin-2-yl]methoxy}-5-(trifluoromethyl)benzamide] |  |  |  |  |  | 2030 nM | Ki (rat CB2 [2]; read-out: rat CB2 (Ki)): 243 nM; Ki (human CB2 receptors; read-out: human CB2 (Ki)): 176 nM |
| C[C@@H](O)COc1ccc(C(F)(F)F)cc1C(=O)/N=c1\cc(C(C)(C)C)n(C)n1C[C@H]1CCCO1 [Example 91, N-{(3E)-5-tert-butyl-1-methyl-2-[(2R)-tetrahydrofuran-2-ylmethyl]-1,2-dihydro-3 H-pyrazol-3-ylidene}-2-{[(2R)-2-hydroxypropyl]oxy}-5-(trifluoromethyl)benzamide] | 18 nM | 38 nM |  | 2.5 h |  | > 27000 nM | clearance [3]: 31.7 mL/min/kg; bioavailability [3]: 33% |
| CCCCCn1/c(=N/C(=O)c2cc(C(F)(F)F)ccc2OCC(C)(C)O)cc(C(C)(C)C)n1C [Example 99, N-[(3E)-5-tert-butyl-1-methyl-2-pentyl-1,2-dihydro-3H-pyrazol-3-ylidene]-2-(2-hydroxy-2-methylpropoxy)-5-(trifluoromethyl)benzamide] | 4.4 nM | 9.2 nM |  | 5.6 h |  |  | clearance [3]: 18.3 mL/min/kg; bioavailability [3]: 37% |
| Cn1c(C(C)(C)C)c/c(=N\C(=O)c2cc(C#N)ccc2OCC(C)(C)O)n1CC1CCC1 [Example 113, N-[(3E)-5-tert-butyl-2-(cyclobutylmethyl)-1-methyl-1,2-dihydro-3H-pyrazol-3-ylidene]-5-cyano-2-(2-hydroxy-2-methylpropoxy)benzamide] | 28 nM | 54 nM |  | 3.4 h |  | > 27000 nM | clearance [3]: 20 mL/min/kg; bioavailability [3]: 100% |
| CCCCCn1/c(=N/C(=O)c2cc(C#N)ccc2OCC(C)(C)O)cc(C(C)(C)C)n1C [Example 115, N-[(3E)-5-tert-butyl-1-methyl-2-pentyl-1,2-dihydro-3H-pyrazol-3-ylidene]-5-cyano-2-(2-hydroxy-2-methylpropoxy)benzamide] | 17 nM | 81 nM |  | 0.6 h |  | > 27000 nM | clearance [3]: 30 mL/min/kg; bioavailability [3]: 7% |
| Cn1c(C(C)(C)C)c/c(=N\C(=O)c2cc(C(F)(F)F)ccc2OC[C@@H]2CCC(=O)N2)n1CC1CCC1 [Example 120, N-[(3E)-5-tert-butyl-2-(cyclobutylmethyl)-1-methyl-1,2-dihydro-3H-pyrazol-3-ylidene]-2-{[(2S)-5-oxopyrrolidin-2-yl]methoxy}-5-(trifluoromethyl)benzamide] | 61 nM |  |  |  |  | > 27000 nM | Ki (human CB2 receptors; read-out: human CB2 (Ki)): 116 nM |
| Cn1c(C(C)(C)C)c/c(=N\C(=O)c2cc([N+](=O)[O-])ccc2OCC(C)(C)O)n1C[C@H]1CCCO1 [Example 121, N-{(3E)-5-tert-butyl-1-methyl-2-[(2R)-tetrahydrofuran-2-ylmethyl]-1,2-dihydro-3H-pyrazol-3-ylidene}-2-(2-hydroxy-2-methylpropoxy)-5-nitrobenzamide] | 7.7 nM | 13 nM |  |  |  | 4710 nM |  |
| Cn1c(C(C)(C)C)c/c(=N\C(=O)c2cc(C(F)(F)F)ccc2OCC(C)(C)C(=O)O)n1C[C@H]1CCCO1 [Example 124, 3-[2-[({(3E)-5-tert-butyl-1-methyl-2-[(2R)-tetrahydrofuran-2-ylmethyl]-1,2-dihydro-3H-pyrazol-3-ylidene}amino)carbonyl]-4-(trifluoromethyl)phenoxy]-2,2-dimethylpropanoic acid] | 43 nM |  |  |  |  | > 27000 nM | Ki (human CB2 receptors; read-out: human CB2 (Ki)): 185 nM |
| CCCCn1/c(=N/C(=O)c2cc([N+](=O)[O-])ccc2OCC(C)(C)O)cc(C(C)(C)C)n1C [Example 138, N-[(3E)-2-butyl-5-tert-butyl-1-methyl-1,2-dihydro-3H-pyrazol-3-ylidene]-2-(2-hydroxy-2-methylpropoxy)-5-nitrobenzamide] | 19 nM | 1.6 nM |  |  |  |  |  |
| CCCCn1/c(=N/C(=O)c2cc(C(F)(F)F)ccc2SCC(N)=O)cc(C(C)(C)C)n1C [Example 140, 2-[(2-amino-2-oxoethyl)thio]-N-[(3E)-2-butyl-5-tert-butyl-1-methyl-1,2-dihydro-3H-pyrazol-3-ylidene]-5-(trifluoromethyl)benzamide] | 11 nM | 136 nM |  |  |  |  |  |
| COc1ccc(C(F)(F)F)cc1C(=O)/N=c1\cc(C(C)(C)C)n(C)n1CC1CC1 [F, reference compound] |  |  | 63.3 mL/min/kg | 2.1 h | 11% |  |  |
| CCCCn1/c(=N/C(=O)c2cc(C(F)(F)F)ccc2OCC(C)(C)OC)cc(C(C)(C)C)n1C [G, reference compound] |  |  | 45 mL/min/kg | 1.5 h | 5% |  |  |
